Experimental findings from patent US7470446B2, “Method and system for supplying amino acids or chemical derivatives in liquid form to ruminant livestock” (Archer-Daniels-Midland Company, priority 2000, dated 2008) are described below.

A short description of this data set: Plasma lysine response after liquid lysine drench. The class given is in vivo, bovines. The conditions noted are these: cattle (bovine), oral, 60 g; for concentration at 148 min: 148 minutes (so in the source). The source says: The following study, performed using liquid lysine supplied in a 60-gram amino acid dose in a liquid drench to two bovines, gave the following response curves in the plasma level of the lysine, which is an index of its absorption by the animals, and illustrates that the esophageal muscle reflex is active: […]

The mark [1] stands for this setting: Cow 1, 60-gram dose, read-out: Cow 1, plasma lysine.
Setting [2] is: Cow 2, 60-gram dose, read-out: Cow 2, plasma lysine.

Read-outs that look alike come from different tables or passages of the source.

As for `NCCCC[C@H](N)C(=O)O` [liquid lysine, lysine], the concentration at 0 min (Cow 1, 60-gram amino acid dose, read-out: Cow 1, plasma lysine) came to 10000 ng/mL. Moreover, under setting [1], the concentration at 80 min is 11300 ng/mL, the concentration at 148 min stood at 19700 ng/mL, the concentration at 160 min came to 12400 ng/mL and the concentration at 240 min came to 16100 ng/mL. For the same molecule, under setting [1], the concentration at 360 min is 17300 ng/mL, the concentration at 420 min worked out at 17500 ng/mL, the concentration at 540 min was 19300 ng/mL and the concentration at 600 min came to 15400 ng/mL. Besides, the concentration at 24 h under setting [1] amounted to 14400 ng/mL. In addition, for the setting “Cow 2, 60-gram amino acid dose, read-out: Cow 2, plasma lysine”, the concentration at 0 min was 10700 ng/mL. In addition, under setting [2], the concentration at 80 min was 10800 ng/mL, the concentration at 148 min turned out to be 20000 ng/mL, the concentration at 160 min stood at 13600 ng/mL and the concentration at 240 min is 22400 ng/mL. In addition, under setting [2], the concentration at 360 min was found to be 24200 ng/mL, the concentration at 420 min came out at 24200 ng/mL, the concentration at 540 min came to 17000 ng/mL and the concentration at 600 min was found to be 14200 ng/mL. Also, the concentration at 24 h under setting [2] worked out at 12000 ng/mL.
